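How tested: cells in 96-well plates exposed to compound for 48 hours at five concentrations. GI50 = concentration required for 50% inhibition of growth.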 Activity calls are given as the source filed them. Rule as the data show it: active = GI50 up to about 1.1 µM and inactive = higher.
How the values were obtained:
Assay in all cases: inhibition of tumour cell growth, NCI panel, 48 h
HL-60 = tested on: HL-60
TK-10 = tested on: TK-10
HCT-15 = tested on: HCT-15
OVCAR-5 = tested on: OVCAR-5
RXF 393 = tested on: RXF 393
SK-MEL-28 = tested on: SK-MEL-28
SF-295 = tested on: SF-295
OVCAR-8 = tested on: OVCAR-8
NCI-H23 = tested on: NCI-H23
NCI-H460 = tested on: NCI-H460
SN12C = tested on: SN12C
SR = tested on: SR
COLO 205 = tested on: COLO 205
K562 = tested on: K562
UACC-62 = tested on: UACC-62
OVCAR-3 = tested on: OVCAR-3
A549 = tested on: A549
A498 = tested on: A498

Measured: GI50

O=C(Cc1ccccc1)NN1C(=O)C(Cl)C1c1cccc(O)c1 (stereo not given)
18.7 µM: HCT-15
inactive: HL-60 11.8 µM | TK-10 18.9 µM | OVCAR-5 14.4 µM | RXF 393 18 µM | SK-MEL-28 18.4 µM | SF-295 16.7 µM | OVCAR-8 14 µM | NCI-H23 17.5 µM | NCI-H460 15.3 µM | SN12C 18.5 µM | SR 3.58 µM | COLO 205 18.4 µM | K562 6.27 µM | UACC-62 > 10 µM | OVCAR-3 14.6 µM | A549 25.1 µM

CCOC(=O)C(C)(C)Oc1ccc2c(-c3ccc(Cl)cc3)c(-c3ccc(Cl)cc3)c(=O)oc2c1
> 100 µM: HCT-15
inactive: HL-60 68.7 µM | TK-10 > 100 µM | RXF 393 93.8 µM | SK-MEL-28 > 100 µM | SF-295 > 100 µM | A498 > 100 µM | OVCAR-8 > 100 µM | NCI-H23 > 100 µM | NCI-H460 > 100 µM | SN12C > 100 µM | SR > 100 µM | COLO 205 > 100 µM | K562 > 100 µM | UACC-62 > 100 µM | OVCAR-3 > 100 µM | A549 > 100 µM

Cn1nc2ccc3nccc(NCCNCCO)c3c2n1
44.3 µM: HCT-15
inactive: HL-60 > 100 µM | TK-10 45.8 µM | OVCAR-5 25 µM | RXF 393 23.7 µM | SK-MEL-28 39.4 µM | SF-295 39.3 µM | OVCAR-8 36.4 µM | NCI-H23 39.4 µM | NCI-H460 18.1 µM | SN12C 32.8 µM | SR 10 µM | COLO 205 17.5 µM | K562 73.5 µM | UACC-62 33.3 µM | OVCAR-3 38.3 µM | A549 40.2 µM

COc1ccc(NC(=O)C2C(=O)N(c3ccc(OC)cc3)C(=O)/C2=N/O)cc1 (stereo not given)
> 100 µM: HCT-15
inactive: HL-60 > 100 µM | TK-10 23.9 µM | OVCAR-5 > 100 µM | RXF 393 15.3 µM | SK-MEL-28 37.8 µM | SF-295 26.4 µM | A498 30.7 µM | OVCAR-8 18 µM | NCI-H23 43.4 µM | NCI-H460 21.9 µM | SN12C 26.4 µM | SR > 100 µM | COLO 205 > 100 µM | K562 > 100 µM | UACC-62 21.8 µM | OVCAR-3 24.7 µM | A549 33.9 µM

Cc1ccc(NC(=O)/C(Cl)=C(/Cl)C(=O)O)cc1
15.6 µM: HCT-15
inactive: HL-60 1.64 µM | TK-10 18.7 µM | OVCAR-5 21 µM | RXF 393 31 µM | SK-MEL-28 18.9 µM | SF-295 30.2 µM | A498 82.2 µM | NCI-H23 17.5 µM | NCI-H460 > 100 µM | SN12C 18.5 µM | SR 18.2 µM | COLO 205 6.93 µM | K562 3.57 µM | UACC-62 15.9 µM | OVCAR-3 18.1 µM | A549 69.8 µM

CCOC(=O)C(C)(C)Oc1ccc2c(-c3ccccc3)cc(=O)oc2c1
31.8 µM: HCT-15
inactive: HL-60 20.1 µM | TK-10 56.8 µM | SK-MEL-28 35.6 µM | SF-295 40.9 µM | A498 30.2 µM | OVCAR-8 37.1 µM | NCI-H23 29 µM | NCI-H460 > 100 µM | SN12C 37 µM | SR 24.9 µM | COLO 205 21.6 µM | K562 27.6 µM | UACC-62 18.3 µM | OVCAR-3 33.9 µM | A549 38.9 µM

CN(C)CCNC(=O)c1cccc2c1nc(-c1ccc(F)cc1)c1ccccc12
2.67 µM: HCT-15
active: NCI-H460 0.417 µM | A549 0.935 µM
inactive: HL-60 1.22 µM | TK-10 4.03 µM | OVCAR-5 3.63 µM | RXF 393 3.2 µM | SK-MEL-28 7.76 µM | SF-295 6.05 µM | A498 2.2 µM | OVCAR-8 4.33 µM | NCI-H23 5.71 µM | SN12C 2.77 µM | COLO 205 3.21 µM | K562 2.44 µM | UACC-62 3.09 µM | OVCAR-3 5.58 µM

COC(=O)C1Cc2c([nH]c3ccccc23)[C@H](CC(C)C)N1 (stereo not given in full)
inactive: HL-60 > 100 µM | TK-10 > 100 µM | OVCAR-5 > 100 µM | RXF 393 > 100 µM | SK-MEL-28 > 100 µM | SF-295 > 100 µM | A498 > 100 µM | OVCAR-8 > 100 µM | NCI-H23 > 100 µM | SN12C > 100 µM | SR > 100 µM | COLO 205 > 100 µM | K562 > 100 µM | UACC-62 > 100 µM | OVCAR-3 > 100 µM | A549 > 100 µM

CCCCCCCCCCSS(=O)(=O)c1ccc(C)cc1
inactive: HL-60 2.43 µM | TK-10 21 µM | OVCAR-5 15.9 µM | RXF 393 15.8 µM | SK-MEL-28 3.39 µM | SF-295 6.58 µM | A498 18.5 µM | OVCAR-8 14.1 µM | NCI-H23 17.3 µM | NCI-H460 8.13 µM | SN12C 10.5 µM | SR 3.6 µM | COLO 205 14.1 µM | K562 12.1 µM | UACC-62 6.82 µM | OVCAR-3 18.6 µM | A549 14.9 µM
13 µM: HCT-15

Nc1nc(O)c2c(ncn2CC(O)CO)n1 (stereo not given)
> 100 µM: HCT-15
inactive: HL-60 > 100 µM | TK-10 > 100 µM | OVCAR-5 > 100 µM | RXF 393 > 100 µM | SK-MEL-28 > 100 µM | SF-295 > 100 µM | A498 > 100 µM | OVCAR-8 > 100 µM | NCI-H460 > 100 µM | SN12C > 100 µM | SR > 100 µM | COLO 205 > 100 µM | K562 > 100 µM | UACC-62 > 100 µM | OVCAR-3 > 100 µM | A549 > 100 µM

[O-][S+](c1ccc(O)cc1)c1ccc(O)cc1
> 100 µM: HCT-15
inactive: HL-60 > 100 µM | TK-10 > 100 µM | OVCAR-5 > 100 µM | RXF 393 > 100 µM | SK-MEL-28 > 100 µM | SF-295 > 100 µM | NCI-H23 > 100 µM | NCI-H460 > 100 µM | COLO 205 > 100 µM | K562 > 100 µM | UACC-62 > 100 µM | OVCAR-3 > 100 µM | A549 > 100 µM

CCOc1ccccc1Nc1nc(C)c(C(=O)CC(=O)C(=O)Nc2ccccc2)s1
41.9 µM: HCT-15
inactive: HL-60 20.3 µM | TK-10 73.8 µM | OVCAR-5 > 100 µM | RXF 393 99.1 µM | SK-MEL-28 > 100 µM | SF-295 54.1 µM | A498 88.5 µM | OVCAR-8 78.9 µM | NCI-H23 36.2 µM | NCI-H460 49.7 µM | SN12C 34.8 µM | SR 49.7 µM | COLO 205 49.3 µM | K562 34.8 µM | UACC-62 37.9 µM | OVCAR-3 22.2 µM | A549 62.8 µM

CC1(OCc2ccccc2)C(=O)N2C1N(C(=O)OCc1ccccc1)CC2(C)C (stereo not given)
68.1 µM: HCT-15
inactive: HL-60 29.4 µM | TK-10 > 100 µM | RXF 393 67.5 µM | SK-MEL-28 > 100 µM | SF-295 38.5 µM | A498 56.9 µM | OVCAR-8 34.8 µM | NCI-H23 35.1 µM | NCI-H460 42.6 µM | SN12C > 100 µM | SR 30.5 µM | COLO 205 94.6 µM | K562 42.8 µM | UACC-62 38.5 µM | OVCAR-3 > 100 µM | A549 38.8 µM

N#Cc1cc([N+](=O)[O-])ccc1NC(=O)C(=O)Nn1c(S)nc2ccccc2c1=O
> 100 µM: HCT-15
inactive: HL-60 > 100 µM | TK-10 > 100 µM | OVCAR-5 > 100 µM | RXF 393 > 100 µM | SK-MEL-28 > 100 µM | SF-295 > 100 µM | A498 > 100 µM | OVCAR-8 > 100 µM | NCI-H23 > 100 µM | NCI-H460 > 100 µM | SN12C > 100 µM | SR > 100 µM | COLO 205 > 100 µM | K562 > 100 µM | OVCAR-3 > 100 µM | A549 > 100 µM

Cc1cccc(C(C)C)c1NC(=O)CCl
90.4 µM: HCT-15
inactive: HL-60 39.9 µM | TK-10 > 10 µM | OVCAR-5 > 100 µM | RXF 393 25.2 µM | SK-MEL-28 > 100 µM | SF-295 92 µM | A498 > 100 µM | NCI-H23 22.9 µM | NCI-H460 64.6 µM | SN12C 56.2 µM | SR 47.8 µM | COLO 205 86.9 µM | K562 56.2 µM | UACC-62 24.4 µM | OVCAR-3 19.1 µM | A549 > 100 µM

C=CC(Br)(CBr)CCC(Br)C(C)(C)Br (stereo not given)
16.5 µM: HCT-15
inactive: TK-10 16.4 µM | OVCAR-5 18.5 µM | RXF 393 14.7 µM | SK-MEL-28 15.9 µM | SF-295 4.42 µM | OVCAR-8 15.7 µM | NCI-H23 15.7 µM | NCI-H460 10.4 µM | SN12C 15.6 µM | SR 3.81 µM | COLO 205 15 µM | K562 17.3 µM | UACC-62 12 µM | A549 14.6 µM

COc1ccc(-c2oc(/C=N/c3ccccc3)c([N+](=O)[O-])c2-c2ccc(OC)c(OC)c2)cc1OC
> 100 µM: HCT-15
inactive: HL-60 > 100 µM | TK-10 > 100 µM | OVCAR-5 > 100 µM | RXF 393 > 100 µM | SK-MEL-28 > 100 µM | SF-295 > 100 µM | OVCAR-8 > 100 µM | NCI-H23 > 100 µM | NCI-H460 > 100 µM | SN12C > 100 µM | SR > 100 µM | COLO 205 > 100 µM | K562 > 100 µM | UACC-62 > 100 µM | OVCAR-3 > 100 µM | A549 > 100 µM
